Measurements from ChEMBL document CHEMBL1201862, “PubChem BioAssay data set” (2004).
The source made the active and inactive calls.

Legend:
[1] = molecular target: T1, Rac GTPase-activating protein 1 (Homo sapiens, UniProt Q9H0H5); experiment: blockers of MgcRacGAP-driven Rac1 GTP hydrolysis – biochemical, ADP Hunter fluorescence, primary and confirmatory, confirmation (AID 624330); type: functional
T1 sequence (Q9H0H5 whole entry): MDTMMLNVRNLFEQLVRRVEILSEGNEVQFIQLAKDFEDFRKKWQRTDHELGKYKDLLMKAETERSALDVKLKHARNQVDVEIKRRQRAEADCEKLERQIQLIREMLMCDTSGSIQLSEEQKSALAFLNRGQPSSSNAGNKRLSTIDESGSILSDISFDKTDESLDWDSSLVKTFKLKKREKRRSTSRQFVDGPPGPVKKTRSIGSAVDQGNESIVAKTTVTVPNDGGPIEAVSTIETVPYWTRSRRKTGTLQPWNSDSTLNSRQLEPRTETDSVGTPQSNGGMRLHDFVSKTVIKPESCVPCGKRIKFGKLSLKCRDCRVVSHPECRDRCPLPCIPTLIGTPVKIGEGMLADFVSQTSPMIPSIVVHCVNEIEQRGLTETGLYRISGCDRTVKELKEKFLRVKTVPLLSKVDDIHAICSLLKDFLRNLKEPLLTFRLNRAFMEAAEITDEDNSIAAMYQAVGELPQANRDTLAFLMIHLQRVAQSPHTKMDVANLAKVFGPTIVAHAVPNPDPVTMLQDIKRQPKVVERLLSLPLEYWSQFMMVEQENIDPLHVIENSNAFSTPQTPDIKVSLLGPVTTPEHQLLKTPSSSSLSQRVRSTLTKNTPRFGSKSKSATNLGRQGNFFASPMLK

Cytochrome P450 3A4 = Cytochrome P450 3A4 (Homo sapiens, UniProt P08684);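 further: CYP3A4 tested as one member of a cytochrome P450 panel screen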
[2] = molecular target: T2, Corticotropin-releasing factor receptor 2/Corticotropin-releasing factor-binding protein (Homo sapiens, UniProt P24387+Q13324); experiment: activators of CRF receptor 2 with binding protein – uHTS hits, confirmation (AID 602473); type: functional; settings: read-out: EC50_Mean
T2 sequence (Q13324 whole entry): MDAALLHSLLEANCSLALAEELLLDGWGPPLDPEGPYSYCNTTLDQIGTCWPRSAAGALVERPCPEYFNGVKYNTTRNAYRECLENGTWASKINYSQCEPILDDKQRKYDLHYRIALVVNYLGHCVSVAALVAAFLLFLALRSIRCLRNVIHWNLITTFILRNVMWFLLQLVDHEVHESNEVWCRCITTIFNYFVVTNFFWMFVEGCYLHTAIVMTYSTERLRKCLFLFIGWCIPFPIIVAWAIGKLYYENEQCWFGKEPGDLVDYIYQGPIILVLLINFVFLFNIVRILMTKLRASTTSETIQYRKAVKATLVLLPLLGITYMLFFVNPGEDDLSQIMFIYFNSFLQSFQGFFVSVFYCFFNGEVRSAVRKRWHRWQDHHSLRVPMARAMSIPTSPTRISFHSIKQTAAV
T2 sequence (P24387 whole entry): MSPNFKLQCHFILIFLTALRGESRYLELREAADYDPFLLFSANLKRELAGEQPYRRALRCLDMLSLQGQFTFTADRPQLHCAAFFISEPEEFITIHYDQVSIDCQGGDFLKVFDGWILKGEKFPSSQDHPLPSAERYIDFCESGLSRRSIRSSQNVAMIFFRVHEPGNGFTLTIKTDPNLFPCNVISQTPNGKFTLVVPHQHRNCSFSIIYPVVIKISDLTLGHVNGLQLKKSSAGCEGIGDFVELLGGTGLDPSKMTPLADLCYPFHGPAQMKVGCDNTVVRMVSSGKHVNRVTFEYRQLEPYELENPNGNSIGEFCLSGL

[3] = molecular target: T2, Corticotropin-releasing factor receptor 2/Corticotropin-releasing factor-binding protein; experiment: Dose Response confirmation of uHTS hits for small molecule antagonists of the CRF-binding protein and CRF-R2 receptor complex.; type: functional; settings: read-out: IC50_Mean
Cytochrome P450 1A2 = molecular target: T3, Cytochrome P450 1A2 (Homo sapiens, UniProt P05177);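 further: PubChem cytochrome P450 panel assay, CYP1A2 panel member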
T3 sequence (P05177 whole entry): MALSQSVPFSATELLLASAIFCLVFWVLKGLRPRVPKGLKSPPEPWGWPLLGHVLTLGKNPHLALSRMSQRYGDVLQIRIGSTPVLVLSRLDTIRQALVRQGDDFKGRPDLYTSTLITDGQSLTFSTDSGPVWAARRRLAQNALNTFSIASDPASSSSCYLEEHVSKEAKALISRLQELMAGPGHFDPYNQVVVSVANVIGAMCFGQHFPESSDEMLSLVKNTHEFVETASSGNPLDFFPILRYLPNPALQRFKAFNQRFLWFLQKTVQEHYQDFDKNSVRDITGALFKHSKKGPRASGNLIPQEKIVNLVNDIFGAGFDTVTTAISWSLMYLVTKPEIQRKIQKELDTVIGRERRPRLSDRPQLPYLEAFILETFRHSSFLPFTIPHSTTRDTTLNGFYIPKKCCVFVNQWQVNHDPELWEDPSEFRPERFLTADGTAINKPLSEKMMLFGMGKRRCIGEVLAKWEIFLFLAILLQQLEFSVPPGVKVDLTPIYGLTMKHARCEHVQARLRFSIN

Cytochrome P450 2C9 = Cytochrome P450 2C9 (Homo sapiens, UniProt P11712)
Cytochrome P450 2D6 = Cytochrome P450 2D6 (Homo sapiens, UniProt P10635);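 further: CYP2D6 member of a cytochrome P450 panel assay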
[4] = Luminescence Cell-Based Dose Retest to Confirm Inhibitors of Cancer Stem Cells. [Related pubchem assays (depositor defined):AID2717, AID2721]; type: functional; settings: Homo sapiens
[5] = tested on: Streptococcus sp. 'group A'; experiment: Streptococcus pyogenes SK(-)GAS viability under kanamycin – luminescence, BacTiterGlo, confirmation, counter-screen for streptokinase expression inhibitor project, dose response (AID 1900); type: functional, organism-based
Streptococcus = experiment: GAS UMAA2166 growth inhibition – luminescence, BacTiterGlo, counter-screen for streptokinase expression inhibitor project, dose response (AID 1915); type: functional, organism-based;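 further: potency for reduction of bacterial viability or growth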
Streptokinase A = molecular target: T4, Streptokinase A (Streptococcus pyogenes serotype M1, UniProt P10520); experiment: viability-normalized secreted streptokinase activity reduction – plasminogen activation absorbance, OD405, dose response (AID 1914); type: functional, Streptococcus pyogenes M1 GAS;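 further: secreted streptokinase activity via plasminogen activation per viability signal from cell pellet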
T4 sequence (P10520 whole entry): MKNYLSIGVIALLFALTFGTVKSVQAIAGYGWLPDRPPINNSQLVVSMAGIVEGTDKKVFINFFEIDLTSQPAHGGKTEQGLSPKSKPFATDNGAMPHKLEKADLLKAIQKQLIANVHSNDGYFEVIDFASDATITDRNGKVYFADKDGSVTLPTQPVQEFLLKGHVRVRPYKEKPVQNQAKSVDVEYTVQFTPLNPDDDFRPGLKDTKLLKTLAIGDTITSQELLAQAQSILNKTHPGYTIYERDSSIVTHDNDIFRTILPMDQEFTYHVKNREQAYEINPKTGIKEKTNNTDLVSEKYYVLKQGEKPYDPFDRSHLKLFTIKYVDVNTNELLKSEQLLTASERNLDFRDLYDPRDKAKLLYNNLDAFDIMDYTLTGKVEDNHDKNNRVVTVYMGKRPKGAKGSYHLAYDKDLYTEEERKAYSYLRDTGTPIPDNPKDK

Paired box protein Pax-8 = Paired box protein Pax-8 (Homo sapiens, UniProt Q06710); experiment: PAX8 transcriptional activity inhibition in RMG-I – RMG-I cells, luciferase, cherry-pick, dose response (AID 687027); type: functional, cell-based;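 further: luciferase reporter driven by Pax8 target thyroperoxidase promoter measured by SteadyGlo luminescence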
[6] = molecular target: T5, RNA-binding protein pos-1 (Caenorhabditis elegans, UniProt G5EF15); experiment: disruptors of C. elegans POS-1 RNA interaction – biochemical, fluorescence polarization, dose response (AID 1964);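 further: purified POS-1 fused to maltose binding protein made in E. coli; potency of compounds blocking POS-1 binding to fluorescent RNA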
T5 sequence (G5EF15 whole entry): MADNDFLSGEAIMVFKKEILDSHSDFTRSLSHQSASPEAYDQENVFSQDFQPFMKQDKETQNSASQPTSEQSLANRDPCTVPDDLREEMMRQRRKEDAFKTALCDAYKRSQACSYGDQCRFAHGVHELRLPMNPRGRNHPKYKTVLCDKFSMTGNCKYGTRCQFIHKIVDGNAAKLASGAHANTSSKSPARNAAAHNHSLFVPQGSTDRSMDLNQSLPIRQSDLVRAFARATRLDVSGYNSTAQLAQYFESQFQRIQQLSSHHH

Sequence of Cytochrome P450 2C9 (P11712 whole entry): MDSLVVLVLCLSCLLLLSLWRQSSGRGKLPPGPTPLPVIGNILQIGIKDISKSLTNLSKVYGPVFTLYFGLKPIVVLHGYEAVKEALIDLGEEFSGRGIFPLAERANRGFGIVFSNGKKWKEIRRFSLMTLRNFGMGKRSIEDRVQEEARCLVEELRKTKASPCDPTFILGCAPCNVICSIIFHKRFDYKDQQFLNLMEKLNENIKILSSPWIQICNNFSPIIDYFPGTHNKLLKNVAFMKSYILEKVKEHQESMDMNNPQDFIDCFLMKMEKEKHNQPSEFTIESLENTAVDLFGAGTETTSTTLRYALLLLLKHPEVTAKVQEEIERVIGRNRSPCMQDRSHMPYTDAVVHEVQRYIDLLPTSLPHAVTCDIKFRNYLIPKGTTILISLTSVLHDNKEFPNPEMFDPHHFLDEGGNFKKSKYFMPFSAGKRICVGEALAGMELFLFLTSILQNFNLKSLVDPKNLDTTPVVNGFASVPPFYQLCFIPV
Sequence of Cytochrome P450 3A4 (P08684 whole entry): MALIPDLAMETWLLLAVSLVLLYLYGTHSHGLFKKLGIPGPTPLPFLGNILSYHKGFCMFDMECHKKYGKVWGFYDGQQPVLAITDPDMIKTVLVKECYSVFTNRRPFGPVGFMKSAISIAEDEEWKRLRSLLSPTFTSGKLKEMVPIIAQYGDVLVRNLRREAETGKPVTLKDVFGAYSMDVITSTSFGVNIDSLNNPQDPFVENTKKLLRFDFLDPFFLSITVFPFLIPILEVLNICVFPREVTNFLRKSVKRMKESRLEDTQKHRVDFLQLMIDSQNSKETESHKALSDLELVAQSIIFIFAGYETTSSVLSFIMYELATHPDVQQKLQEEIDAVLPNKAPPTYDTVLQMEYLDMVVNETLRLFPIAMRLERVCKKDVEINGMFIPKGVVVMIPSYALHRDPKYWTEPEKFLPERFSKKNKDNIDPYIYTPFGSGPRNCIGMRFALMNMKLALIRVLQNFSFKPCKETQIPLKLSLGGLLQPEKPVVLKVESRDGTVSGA
Sequence of Paired box protein Pax-8 (Q06710 whole entry, the tested form may be a part): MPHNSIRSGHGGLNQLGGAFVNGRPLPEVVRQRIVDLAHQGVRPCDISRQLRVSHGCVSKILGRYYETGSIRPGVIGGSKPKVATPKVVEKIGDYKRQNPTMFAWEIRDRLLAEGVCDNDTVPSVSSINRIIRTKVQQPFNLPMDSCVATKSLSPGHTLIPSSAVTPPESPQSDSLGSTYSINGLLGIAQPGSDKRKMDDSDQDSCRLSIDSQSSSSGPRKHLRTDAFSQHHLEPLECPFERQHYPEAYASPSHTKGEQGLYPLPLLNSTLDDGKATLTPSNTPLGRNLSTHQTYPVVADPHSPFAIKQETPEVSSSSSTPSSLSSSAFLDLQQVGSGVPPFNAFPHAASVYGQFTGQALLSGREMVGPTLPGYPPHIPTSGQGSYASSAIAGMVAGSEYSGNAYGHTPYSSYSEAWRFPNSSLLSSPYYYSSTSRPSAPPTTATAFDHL
Sequence of Cytochrome P450 2D6 (P10635 whole entry): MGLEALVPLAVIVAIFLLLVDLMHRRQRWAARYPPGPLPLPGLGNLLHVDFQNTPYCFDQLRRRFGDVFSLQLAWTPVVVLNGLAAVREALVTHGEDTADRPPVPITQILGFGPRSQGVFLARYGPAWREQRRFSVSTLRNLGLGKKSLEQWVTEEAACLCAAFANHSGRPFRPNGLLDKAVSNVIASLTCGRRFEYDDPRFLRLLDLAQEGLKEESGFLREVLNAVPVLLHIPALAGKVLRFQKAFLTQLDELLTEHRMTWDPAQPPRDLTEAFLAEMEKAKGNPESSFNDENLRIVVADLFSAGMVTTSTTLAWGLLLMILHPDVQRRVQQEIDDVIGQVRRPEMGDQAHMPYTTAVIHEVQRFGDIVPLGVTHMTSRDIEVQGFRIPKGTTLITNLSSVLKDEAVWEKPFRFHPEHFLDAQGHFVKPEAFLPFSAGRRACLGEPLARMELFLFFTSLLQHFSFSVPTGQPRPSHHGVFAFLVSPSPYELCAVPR

Nc1sc(-c2ccccc2)c(Cc2ccccc2)c1C(=O)O
IC50 [1]: 67.6 µM (active)

CC(Cc1ccccc1)N/C=C1\CC(=O)NC1=O (centres undefined)
AC50 (Cytochrome P450 3A4): 3.98 µM (inconclusive)

c1ccc(C(c2nnnn2Cc2cccs2)N2CCN(C3CCCC3)CC2)cc1 (centres undefined)
EC50 [2]: > 53 µM (inactive)
IC50 [3]: > 47.1 µM (inactive)

CCC/C=C(\CCC)C(NC(=O)c1cccs1)c1ccc(C(F)(F)F)cc1 (centres undefined)
AC50 (Cytochrome P450 1A2): 3.16 µM (inconclusive)
AC50 (Cytochrome P450 2C9): 0.501 µM (inconclusive)

CO[C@@H]1/C=C\CC(=O)N[C@@H](C)C(=O)OC[C@@H](OC)[C@H](C)CCCC(=O)OC[C@H]1C
AC50 (Cytochrome P450 3A4): 3.16 µM (inconclusive)

COC(=O)[C@@H]1CC[C@H](C)[C@@H](c2ccc(C)cc2)N1C(=O)c1ccc(/C=N\O[C@@H](C)c2cn([C@H]3COC[C@H]3O)nn2)cc1
AC50 (Cytochrome P450 2C9): 3.16 µM (inconclusive)
AC50 (Cytochrome P450 3A4): 3.16 µM (inconclusive)

O=C(CSCc1ccccc1Br)NNC(=S)NCc1ccco1
EC50 [2]: > 53 µM (inactive)
IC50 [3]: > 47.1 µM (inactive)

COc1ccc(-c2csc(-n3ncc(-c4cccs4)c3N)n2)cc1
AC50 (Cytochrome P450 1A2): 0.355 µM (inconclusive)
AC50 (Cytochrome P450 2C9): 0.0501 µM (inconclusive)
AC50 (Cytochrome P450 3A4): 8.91 µM (inconclusive)

Cc1ccc(-c2cnc(NC(=O)CCC(=O)N3CCCCC3)n2C)cc1
AC50 (Cytochrome P450 2D6): 14.1 µM (inconclusive)
AC50 (Cytochrome P450 1A2): 25.1 µM (inconclusive)
AC50 (Cytochrome P450 3A4): 39.8 µM (inconclusive)

Cc1cccc(NC(=O)c2nc[nH]c2C(=O)N[C@@H](C)c2ccccc2)c1
AC50 [4]: 7.02 µM (active)

Oc1ccccc1CNc1ccc2c(c1)OCCO2
IC50 [1]: 94.9 µM (active)

CCN(CC)Cc1nc(O)c2c(n1)-c1ccccc1CC21CCCC1
AC50 (Cytochrome P450 3A4): 14.1 µM (inconclusive)

COc1ccc(-c2nc3cnc(OC)nc3n(CCc3ccccc3)c2=O)cc1
AC50 (Cytochrome P450 1A2): 6.31 µM (inconclusive)
AC50 (Cytochrome P450 2C9): 6.31 µM (inconclusive)
AC50 (Cytochrome P450 3A4): 10 µM (inconclusive)

CN(c1ccccc1)S(=O)(=O)c1ccc2c(c1)oc(=O)n2C
EC50 [2]: > 53 µM (inactive)
IC50 [3]: > 47.1 µM (inactive)

C/C(=C\C1CCCCC1)C(NC(=O)c1ccc(C(F)(F)F)cc1)c1ccc(-c2ccccc2)cc1 (centres undefined)
AC50 (Cytochrome P450 3A4): 12.6 µM (inconclusive)

CC(C(=O)NC1CCCCC1)N1CCN(C)CC1 (centres undefined)
IC50 [1]: 93.7 µM (active)

Cc1nn(-c2ccc(F)cc2)c(Cl)c1/C=C1\C(=O)Nc2ccccc21
AC50 [4]: 1.95 µM (active)

Brc1ccc([C@H]2CN3CCSC3=N2)cc1
AC50 (Cytochrome P450 1A2): 15.8 µM (inconclusive)
AC50 (Cytochrome P450 3A4): 25.1 µM (inconclusive)

O=C(CN1CCN(c2ncccn2)CC1)NCCC1=CCCCC1
AC50 (Cytochrome P450 3A4): 17.8 µM (inconclusive)

CC(C)=CCc1c(O)cc2c(c1O)C(=O)CC(c1ccc(O)cc1)O2 (centres undefined)
EC50 [5]: 3.55 µM (active)
AC50 [4]: 3.72 µM (active)
EC50 (Streptococcus): 4 µM (active)
EC50 (Streptokinase A): > 150 µM (not active)

CN(C)S(=O)(=O)c1ccc(C(=O)OCC(=O)Nc2ccc(OC(F)F)cc2)cc1
EC50 [2]: > 53 µM (inactive)
IC50 [3]: > 47.1 µM (inactive)

CC(=O)N1c2ccc(S(=O)(=O)N(C)CC(=O)NC3CCCC3)cc2CC1C (centres undefined)
EC50 [2]: > 53 µM (inactive)
IC50 [3]: > 47.1 µM (inactive)

O=C(Oc1ccccc1N1C(=O)C2CCCCC2C1=O)c1ccccc1 (centres undefined)
AC50 (Cytochrome P450 1A2): 15.8 µM (inconclusive)
AC50 (Cytochrome P450 2C9): 11.2 µM (inconclusive)

CCCn1c(=O)c2ccccc2n2c(SCCNCCO)nnc12
IC50 [1]: 52.2 µM (active)

COc1ccccc1NS(=O)(=O)c1cc(N)ccc1N1CCCC1
IC50 [1]: 47.8 µM (active)

Oc1ccc(C[C@H]2CNC(=S)N2CC2CCCN2C[C@H](Cc2ccc(O)cc2)N2C[C@H](Cc3ccc(O)cc3)N(CC3CCCCC3)C2=S)cc1 (some centres undefined)
AC50 (Paired box protein Pax-8): 6.44 µM (active)

COc1ccc(-n2cnnc2)cc1
AC50 (Cytochrome P450 1A2): 14.1 µM (inconclusive)
AC50 (Cytochrome P450 2C9): 0.0282 µM (inconclusive)

CCCCn1c(SCC(N)=O)nc2sc3c(c2c1=O)CCC3
AC50 [4]: 126 µM (active)

O=C(O)c1cccc(NC(=NS(=O)(=O)c2ccccc2)c2ccccc2)c1
EC50 [2]: > 53 µM (inactive)
IC50 [3]: > 47.1 µM (inactive)

C/C(=N\NC(=S)NC(C)C)c1ccc(C(C)(C)C)cc1
AC50 [4]: 11 µM (active)

CCOC(=O)C1=C(C)N=c2s/c(=C/c3ccc(OCC(=O)O)cc3)c(=O)n2C1c1ccc(OC)cc1OC (centres undefined)
EC50 [6]: 85.1 µM (active)

NC(=O)CSc1nnnn1-c1ccc2c(c1)OCCO2
EC50 [2]: > 53 µM (inactive)
IC50 [3]: > 47.1 µM (inactive)

CN(C)c1ccc(/C=N\Nc2ccccn2)cc1
IC50 [1]: 31.6 µM (active)

C[C@H](CO)N1C[C@H](C)[C@@H](CN(C)C(=O)c2ccc3ccn(C)c3c2)OCc2cn(nn2)CCCC1=O
EC50 [2]: > 53 µM (inactive)
IC50 [3]: > 47.1 µM (inactive)

COc1cccc(S(=O)(=O)N2CC[C@H]3[C@@H](CO)N(C)c4ccc(C#Cc5ccc(F)cc5)cc4[C@H]32)c1
AC50 (Paired box protein Pax-8): 6.92 µM (active)

COc1ccc2[nH]c3c(=O)n(Cc4ccc(C(=O)N5CCC(C(N)=O)CC5)cc4)c(=S)[nH]c3c2c1
IC50 [1]: 61.3 µM (active)

Cc1ccc(-c2nnc(S)n2/N=C/c2ccc(C(=O)O)cc2)cc1
IC50 [1]: 74.4 µM (active)
